# Laboratory results from patent US20250302815A1, “PROTEIN TYROSINE PHOSPHATASE TARGETING LIGANDS” (CALICO LIFE SCIENCES LLC, priority 2021, published 2025).
# Assays:
# [1] = target: T1, PTPN2 (B16F10.4 cells) (Mus musculus, UniProt Q06180); assay: HiBiT Degradation B16F10.4 PTPN2; type: cell-based; details: 24.0 hours
# T1 construct: HiBiT; host or cells: B16F10.4
# T1 sequence (Q06180 1-406): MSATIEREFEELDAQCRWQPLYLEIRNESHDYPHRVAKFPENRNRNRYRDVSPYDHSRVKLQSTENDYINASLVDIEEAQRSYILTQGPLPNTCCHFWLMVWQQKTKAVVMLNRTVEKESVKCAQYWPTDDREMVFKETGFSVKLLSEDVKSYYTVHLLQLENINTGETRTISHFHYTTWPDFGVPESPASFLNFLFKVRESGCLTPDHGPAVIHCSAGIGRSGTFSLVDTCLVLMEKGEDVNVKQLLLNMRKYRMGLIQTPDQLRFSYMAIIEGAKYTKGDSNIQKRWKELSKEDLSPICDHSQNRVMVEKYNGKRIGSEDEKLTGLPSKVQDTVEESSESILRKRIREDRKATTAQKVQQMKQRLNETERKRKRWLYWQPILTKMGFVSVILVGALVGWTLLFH
# [2] = target: T2, PTPN2 (HiBIT-PTPN2 in 293T.109 cells) (Homo sapiens, UniProt P17706); assay: HiBiT Degradation 293T.109 PTPN2 (Nano-Glo HiBiT Lytic Assay); type: cell-based; details: 24.0 hours
# T2 construct: expressed in transfected cells; host or cells: 293T.109 (293T WT from ATCC)
# T2 sequence (P17706 1-415): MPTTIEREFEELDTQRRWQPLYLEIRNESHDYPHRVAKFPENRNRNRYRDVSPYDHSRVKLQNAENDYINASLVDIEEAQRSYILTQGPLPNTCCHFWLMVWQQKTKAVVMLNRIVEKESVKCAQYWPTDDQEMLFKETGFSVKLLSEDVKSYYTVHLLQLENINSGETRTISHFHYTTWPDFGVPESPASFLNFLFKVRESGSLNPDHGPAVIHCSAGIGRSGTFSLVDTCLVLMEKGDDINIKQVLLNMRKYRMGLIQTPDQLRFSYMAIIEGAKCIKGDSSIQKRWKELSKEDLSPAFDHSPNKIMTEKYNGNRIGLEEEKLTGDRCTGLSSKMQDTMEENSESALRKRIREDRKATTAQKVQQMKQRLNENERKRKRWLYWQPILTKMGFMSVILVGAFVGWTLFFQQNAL
# Procedure, shortened: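 Degradation read-out: lytic HiBiT luminescence after 24 h treatment (37 °C, 5% CO2) of 5000 293T cells per well expressing HiBiT-fused PTPN2 from an N-terminal tag. Dosing was 11 points, half-log steps down from 10 μM, in duplicate; vehicle-treated and no-reagent wells served as controls.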
Structure (SMILES),DC50 [1] [nM],DC50 [2] [nM]
"CC1(C)C[C@@H](Nc2cccc(-c3sc(C(=O)O)c(OCC(=O)O)c3Cl)c2)CCN1S(=O)(=O)Cc1cccc(NC(=O)C2CN(C(=O)CNc3ccc4c(c3)CN(C3CCC(=O)NC3=O)C4=O)C2)c1 (stereo partly drawn) [Example 57, 3-(carboxymethoxy)-4-chloro-5-[3-[[(4S)-1-[[3-[[1-[2-[[2-(2,6-dioxo-3-piperidyl)-1-oxo-isoindolin-5-yl]amino]acetyl]azetidine-3-carbonyl]amino]phenyl]methylsulfonyl]-2,2-dimethyl-4-piperidyl]amino]phenyl]thiophene-2-carboxylic acid]",≥ 1000,50 to 200
"O=C(O)COc1c(C(=O)O)sc(-c2cccc(NC3CCN(S(=O)(=O)C(c4ccccc4)c4cccc(NC(=O)CNc5ccc6c(c5)C(=O)N(C5CCC(=O)NC5=O)C6=O)c4)CC3)c2)c1Cl (stereo not drawn) [Example 42, 3-(carboxymethoxy)-4-chloro-5-(3-((1-(((3-(2-((2-(2,6-dioxopiperidin-3-yl)-1,3-dioxoisoindolin-5-yl)amino)acetamido)phenyl)(phenyl)methyl)sulfonyl)piperidin-4-yl)amino)phenyl)thiophene-2-carboxylic acid]",≥ 1000,200 to 1000
"O=C(O)COc1c(C(=O)O)sc(-c2cccc(NC3CCN(S(=O)(=O)Cc4cccc(NC(=O)CCOCCNC(=O)CNc5ccc6c(c5)C(=O)N(C5CCC(=O)NC5=O)C6=O)c4)CC3)c2)c1Cl (stereo not drawn) [Example 24, 3-(carboxymethoxy)-4-chloro-5-[3-[[1-[[3-[3-[2-[[2-[[2-(2,6-dioxo-3-piperidyl)-1,3-dioxo-isoindolin-5-yl]amino]acetyl]amino]ethoxy]propanoylamino]phenyl]methylsulfonyl]-4-piperidyl]amino]phenyl]thiophene-2-carboxylic acid]",≥ 1000,200 to 1000
"CC1(C)C[C@@H](Nc2cccc(-c3sc(C(=O)O)c(OCC(=O)O)c3Cl)c2)CCN1S(=O)(=O)Cc1cccc(NC(=O)C2CN(C(=O)CNc3cccc4c3CN(C3CCC(=O)NC3=O)C4=O)C2)c1 (stereo partly drawn) [Example 44, 3-(Carboxymethoxy)-4-chloro-5-(3-(((4S)-1-((3-(1-((2-(2,6-dioxopiperidin-3-yl)-1-oxoisoindolin-4-yl)glycyl)azetidine-3-carboxamido)benzyl)sulfonyl)-2,2-dimethylpiperidin-4-yl)amino)phenyl)thiophene-2-carboxylic acid]",200 to 1000,< 50
"Cn1c(=O)n(C2CCC(=O)NC2=O)c2ccc(N3CCC(O)(CC(=O)Nc4cccc(CS(=O)(=O)N5CC[C@@H](Nc6cccc(-c7sc(C(=O)O)c(OCC(=O)O)c7Cl)c6)CC5(C)C)c4)CC3)cc21 (stereo partly drawn) [Example 179, 3-(carboxymethoxy)-4-chloro-5-(3-(((4R)-1-((3-(2-(1-(1-(2,6-dioxopiperidin-3-yl)-3-methyl-2-oxo-2,3-dihydro-1H-benzo[d]imidazol-5-yl)-4-hydroxypiperidin-4-yl)acetamido)benzyl)sulfonyl)-2,2-dimethylpiperidin-4-yl)amino)phenyl)thiophene-2-carboxylic acid]",200 to 1000,200 to 1000

# Now from value to molecule:
DC50 [1] [nM],DC50 [2] [nM],Structure (SMILES)
50 to 200,50 to 200,"CC1(C)C[C@@H](Nc2cccc(-c3sc(C(=O)O)c(OCC(=O)O)c3Cl)c2)CCN1S(=O)(=O)Cc1cccc(NC(=O)N2CCC[C@@H](c3ccc4c5c(cccc35)N(C3CCC(=O)NC3=O)C4=O)CC2)c1 (stereo partly drawn) [Example 224, 3-(carboxymethoxy)-4-chloro-5-(3-(((4S)-1-((3-((4R)-4-(1-(2,6-dioxopiperidin-3-yl)-2-oxo-1,2-dihydrobenzo[cd]indol-5-yl)azepane-1-carboxamido)benzyl)sulfonyl)-2,2-dimethylpiperidin-4-yl)amino)phenyl)thiophene-2-carboxylic acid]"
200 to 1000,200 to 1000,"Cc1nn(C2CCC(=O)NC2=O)c2ccc(C3CCN(C(=O)Nc4cccc(CS(=O)(=O)N5CC[C@H](Nc6cccc(-c7sc(C(=O)O)c(OCC(=O)O)c7Cl)c6)CC5(C)C)c4)CC3)cc12 (stereo partly drawn) [Example 233, 3-(carboxymethoxy)-4-chloro-5-[3-[[(4S)-1-[[3-[[4-[1-(2,6-dioxo-3-piperidyl)-3-methyl-indazol-5-yl]piperidine-1-carbonyl]amino]phenyl]methylsulfonyl]-2,2-dimethyl-4-piperidyl]amino]phenyl]thiophene-2-carboxylic acid]"
200 to 1000,200 to 1000,O=C(O)COc1c(C(=O)O)sc(-c2cccc(NC3CCN(S(=O)(=O)Cc4cccc(NC(=O)CN5CCC(c6ccc7c(c6)CN(C6CCC(=O)NC6=O)C7=O)CC5)c4)CC3)c2)c1Cl (stereo not drawn) [Example 45]
< 50,50 to 200,"Cn1c(=O)n(C2CCC(=O)NC2=O)c2ccc(C3CCN(C(=O)Nc4cccc(CS(=O)(=O)N5CC[C@H](Nc6cccc(-c7sc(C(=O)O)c(OCC(=O)O)c7Cl)c6)CC5(C)C)c4)CC3)cc21 (stereo partly drawn) [Example 60, 3-(carboxymethoxy)-4-chloro-5-(3-(((4S)-1-((3-(4-(1-(2,6-dioxopiperidin-3-yl)-3-methyl-2-oxo-2,3-dihydro-1H-benzo[d]imidazol-5-yl)piperidine-1-carboxamido)benzyl)sulfonyl)-2,2-dimethylpiperidin-4-yl)amino)phenyl)thiophene-2-carboxylic acid]"
200 to 1000,200 to 1000,"CC1(C)C[C@@H](Nc2cccc(-c3sc(C(=O)O)c(OCC(=O)O)c3Cl)c2)CCN1S(=O)(=O)Cc1cccc(NC(=O)CCCCCn2cc(CNc3cccc4c3C(=O)N(C3CCC(=O)NC3=O)C4=O)nn2)c1 (stereo partly drawn) [Example 12, 3-(carboxymethoxy)-4-chloro-5-(3-(((4S)-1-((3-(6-(4-(((2-(2,6-dioxopiperidin-3-yl)-1,3-dioxoisoindolin-4-yl)amino)methyl)-1H-1,2,3-triazol-1-yl)hexanamido)benzyl)sulfonyl)-2,2-dimethylpiperidin-4-yl)amino)phenyl)thiophene-2-carboxylic acid]"
200 to 1000,200 to 1000,"CC1(C)C[C@@H](Nc2cccc(-c3sc(C(=O)O)c(OCC(=O)O)c3Cl)c2)CCN1S(=O)(=O)Cc1cccc(NC(=O)N2CCC(c3ccc4c(c3)CCN4C3CCC(=O)NC3=O)CC2)c1 (stereo partly drawn) [Example 94, 3-(carboxymethoxy)-4-chloro-5-[3-[[(4S)-1-[[3-[[4-[1-(2,6-dioxo-3-piperidyl)indolin-5-yl]piperidine-1-carbonyl]amino]phenyl]methylsulfonyl]-2,2-dimethyl-4-piperidyl]amino]phenyl]thiophene-2-carboxylic acid]"
50 to 200,50 to 200,"Cn1c(=O)n(C2CCC(=O)NC2=O)c2ccc(C3CCN(C(=O)Nc4cccc(CS(=O)(=O)N5CC[C@H](Nc6cccc(-c7sc(C(=O)O)c(OCC(=O)O)c7Cl)c6)CC5(C)C)c4)CC3)c(Cl)c21 (stereo partly drawn) [Example 207, 3-(carboxymethoxy)-4-chloro-5-[3-[[(4S)-1-[[3-[[4-[4-chloro-1-(2,6-dioxo-3-piperidyl)-3-methyl-2-oxo-benzimidazol-5-yl]piperidine-1-carbonyl]amino]phenyl]methylsulfonyl]-2,2-dimethyl-4-piperidyl]amino]phenyl]thiophene-2-carboxylic acid]"
